In US20250049741A1, “COMPOSITION FOR PREVENTING OR TREATING ALZHEIMER'S DISEASE COMPRISING PHOSPHOLIPASE C ACTIVATOR AS AN ACTIVE INGREDIENT” (Korea University Research and Business Foundation, priority 2021, published 2025):

System: PLCβ1
Assay: Western blot of hippocampal PLCβ1 after stereotaxic drug injection in 5XFAD mice
Type: in vivo
Details: m-3M3FBS (50 μM, 0.5 μl per site) injected into dorsal and ventral bilateral hippocampi; three days after injection
Source text: To test the acute effect of AβO on hippocampal S-eCB mobilization, hippocampal slices from Sprague-Dawley rats (SD, 2 to 3 weeks old, […] Biolink, Co., Ltd., Korea) were used. Male and female rats were used in all in vitro experiments. To test the chronic effect of AβO on hippocampus-dependent memory impairments caused by amyloidosis, the 5XFAD mouse model (6 to 7 months old, #34840-JAX, Jackson Laboratory, USA), which is a mouse model of Alzheimer's disease that mimics AβO depositions, was used. C57BL/6 mice (6 to 7 months old, KOATECH, Korea) were used as wild type (WT) control mice for 5XFAD mice. Male 5XFAD and C57BL/6 mice were used for all in vivo behavioral experiments. The 5XFAD mouse genotypes were identified by polymerase chain reaction (PCR) using DNA extracted from the tails of the mice. All animal-related procedures followed the guidelines of the Institutional Animal Care and Use Committee of Korea University (guidelines for SD rats: KUIACUC-2017-103, guidelines for C57BL/6 and 5XFAD mice: KUIACUC-2019-0068). […] Immunoreactivity was confirmed with enhanced chemiluminescence (Bio-Rad, USA) using a Fluorchem E system (ProteinSimple, USA) and analyzed with ImageJ software. […]

Cc1cc(C)c(S(=O)(=O)Nc2cccc(C(F)(F)F)c2)c(C)c1 [m-3M3FBS]
hippocampal PLCβ1 protein levels in 5XFAD mice: completely recovered
